Laboratory results as given in patent US9682067B2, “Methods of improving cognitive function” (priority 2010, dated 2017).
Where two headings read alike, the source gives them in different places.

Tests used:
GluR6 receptor = assay: Complex olfactory discrimination learning in 4-arm maze after injection into the brain ventricles; format: in vivo; details: rats; 500 nmol into the brain ventricles, evaluation 10 min after daily injection; saline injected rats 8 days; p<0.001
Description: Olfactory discrimination protocol was performed in a 4-arm radial maze, with odors that are frequently used in the food industry (FIG. 1A). FIG. 1A is a schematic description of the 4-arm maze: an electronic ‘start’ command opens randomly two out of eight valves (V), releasing a positive-cue odor (P) into one of the arms and a negative-cue odor (N) into another. Eight seconds later, the two corresponding guillotine doors (D) are lifted to allow the rat to enter the selected arms. Upon reaching the far end of an arm (90 cm long), the rat body interrupts an infrared beam (I, arrow) and a drop of drinking water is released from a water hose (W) into a small drinking well (for a trained rat—only if the arm contains the positive-cue odor, for pseudo-trained rat—randomly). A trial ends when the rat interrupts a beam, or in 10 seconds, if no beam was interrupted. A fan is operated for 15 seconds between trials, to remove odors.
Olfactory training included 20 trials per day. […] A pseudo-trained group of age-matched rats was exposed to the same protocol of training, but with random water rewarding. An age-matched naive group of rats was water-deprived, without exposure to training. A day following memorization of a pair of odors by the rats in the trained group, both trained and pseudo trained groups were trained with a new pair of odors. […]

kainate receptors = assay: Post-burst AHP amplitude in pyramidal neurons of brain slices after brief kainate exposure; format: cell-based, rat; details: for averaged AHP amplitude: after ten minutes long exposure to kainate, p<0.05
Description: brain slices of the pirofm cortex hippocampus are prepared and recordings were obtained from pyramidal neurons, with sharp electrodes for current clamp studies of AHP and neuronal adaptation. Data was collected from at least 20 neurons taken for 6 rats or more in each experimental group.
for after-hyper-polarization (AHP) measurement, neurons were depolarized in current clamp mode to Vm of −60 mV with DC current injection, and 100 ms long depolarizing current steps were applied with intensity sufficient to evoke trains of 6 action potentials. AHP amplitude was measured from baseline to the peak of the hyperpolarizing voltage deflection that follows the spike train (FIGS. 2A1 and 2A2). The AHP value was determined from the averaged amplitude in 4-5 consecutive traces, evoked at intervals of 10 sec. FIGS. 2A1 and 2A2 show the same trace on different time scales. Neurons were held at membrane potential of −60 mV and post-burst AHP was generated by 100 ms depolarizing current step injection via the recording electrode, with intensity sufficient to generate a train of 6 action potentials.
These experiments included a brief, ten minutes long, exposure to kainate. […] This decrease outlasted while kainate was present and was always apparent for the total length to kainate exposure (FIG. 8A).
The post burst AHP in neurons from trained rats was not affected by exposure to kainate. The averaged AHP in kainate induced, trained neurons was 6.63±2.4 (n=7).

GluR6 = format: cell-based, mice; details: 1 sec depolarizing pulse, Ithx2, versus control
Description: For neuronal adaptation measurements, prolonged (1 sec) depolarizing current steps are applied to the neurons via the recording electrode at Vrest, with stimulus intensity of twice IThreshold (FIG. 2B). The firing frequency was measured between each of two spikes in the train, and values were normalized to the initial frequency at which the first two spikes are generated. FIG. 2B is a graph depicting an example for neuronal firing adaptation in layer II pyramidal cell.
FIG. 10B is a bar graph depicting the number of spikes following kainate application in GluR6+/+ and GluR6−/− neurons, as opposed to control, (n) depicts the number of neurons.

Row | SMILES | averaged number of training days required for learning completion (GluR6 receptor) | averaged AHP amplitude (kainate receptors; neurons from naive animals, n=16) | averaged AHP amplitude (kainate receptors; neurons from pseudo trained rats, n=7) | effect on post burst AHP (kainate receptors; neurons from trained rats, exposure to kainate) | averaged AHP (kainate receptors; neurons from trained rats, kainate induced, n=7) | number of action potentials (spikes) following kainate application (GluR6; neurons from GluR6 knockout (GluR6-/-) mice) | number of action potentials (spikes) following kainate application (GluR6; neurons of wild type (GluR6+/+) mice)
1 | Cc1onc(O)c1CCC(N)C(=O)O (racemic) [homo-AMPA, (RS)-2-amino-4-(3-hydroxy-5-methylisoxazol-4-yl)butyric acid] | less than five |  |  |  |  |  | 
2 | C=C(C)[C@H]1CN[C@H](C(=O)O)[C@H]1CC(=O)O [kainate, kainic acid] |  | 6.0±2.5 | 6.63 ± 2.4 | not affected | 6.63±2.4 | no effect | doubles
